Experimental findings from patent US20180215788A1, “Compounds and Compositions for the Treatment of Ophthalmic Disorders” (Shire Human Genetic Therapies, Inc., priority 2017, published 2018) are described below.

The subject of the experiment is normotensive dogs. Kind of experiment: Pharmacodynamics (IOP) after single topical ocular dose of SEQ ID NO:1, latanoprost or their combination. To be noted: for maximum percent change in intraocular pressure compared to contralateral eye / intraocular pressure: female dogs; for maximum percent change in intraocular pressure compared to contralateral eye: 0.03% SEQ ID NO:1, 0.005% latanoprost, alone or adjunctive, FIG. 6; for intraocular pressure: topical ocular 0.005% latanoprost, 0.03% SEQ ID NO:1, alone or adjunctively, FIG. 7. The experiment is classed as in vivo. The method, then: A study of the pharmacodynamics following a single ascending topical ocular dose of SEQ ID NO:1; latanoprost; or a latanoprost/SEQ ID NO:1 combination was undertaken in normotensive dogs.
Animals were not fasted prior to dose administration. As appropriate, latanoprost was administered first followed by SEQ ID NO:1 approximately 5 minutes later. […] After the dose was administered, the eye was allowed to close naturally. Each animal was then restrained for approximately 1 minute to prevent rubbing of the eyes. The right eye was dosed first. All measurement and collection times were based on the time of dosing of the second (left) eye.
Following arrival, animals were preconditioned (trained) to IOP measurement procedures three times daily (i.e. 07:00, 12:00, and 15:00±0.5 hours) at least three times/week for approximately seven weeks prior to Phase 1. Three readings/eye were taken using a TonoVet.
Intraocular pressure was measured at −1, 0 (predose), 1, 2, 4, 8, 12, 24, and 48 hours postdose (following the last dose, as applicable) for all animals in Group 1, Phases 1 through 10. Three readings/eye were taken using a TonoVet.
Animals selected for pharmacodynamics (Group 1) were administered SEQ ID NO:1 (12, 35, 105, or 210 μg/eye), latanoprost (0.35, 0.875, or 1.75 μg/eye), and latanoprost/SEQ ID NO:1 in combination to the right eye (OD) and vehicle or phosphate-buffered saline (PBS) to the left eye (OS).
Intraocular pressure (IOP) was measured at various time points from pre-dose to 48 hours post-dose.
Pharmacodynamic animals (Group 1) were unilaterally treated with a single topical ocular dose of latanoprost (0.001, 0.0025, and 0.005%), followed by approximately 5 minutes later with a dose of SEQ ID NO:1 0.03%, in the right eye (OD) only.

*1 amine or outer side, *2 acyl side, *3 side chain or, on linkers, in order; H or OH if unused. Where a SMILES comes first, the peptide text is derived from it. [ ]: non-standard residue; d: D form. The star is where a group is joined. dOrn(Me2) = CN(C)CCC[C@@H](N)C(=O)O; X1 = O=C([C@H]1CCCN([*:1])C1)[*:2]; Hyp = O=C(O)[C@@H]1C[C@@H](O)CN1; NMeL = CN[C@@H](CC(C)C)C(=O)O; Octanoyl = CCCCCCCC(=O)*

For `CCCCCCCC(=O)N1CCC[C@H](C(=O)N[C@@H](Cc2ccccc2)C(=O)N[C@H](CCCN(C)C)C(=O)N[C@@H](CC(C)C)C(=O)N2C[C@H](O)C[C@H]2C(=O)N(C)[C@@H](CC(C)C)C(=O)N[C@@H](CC(=O)O)C(=O)N[C@@H](CCCNC(=N)N)C(=O)N[C@H](C(N)=O)[C@@H](C)CC)C1` [SEQ ID NO:1, Occ-Sni-Phe-orn(Me2)-Leu-Hyp-Nml-Asp-Arg-Ile-NH2] (Octanoyl-[X1]F[dOrn(Me2)]L[Hyp][NMeL]DRI-NH2), the “maximum percent change in intraocular pressure compared to contralateral eye” value was determined as 16% and the intraocular pressure is 12 mmHg.

For `CC(C)OC(=O)CCC/C=C\C[C@@H]1[C@@H](CC[C@@H](O)CCc2ccccc2)[C@H](O)C[C@@H]1O` [latanoprost], the “maximum percent change in intraocular pressure compared to contralateral eye” value came to 21% and the intraocular pressure worked out at 12 mmHg. Also, the “maximal delta decrease (Emax) in IOP, latanoprost dose response” value (dogs, latanoprost 0.001, 0.0025, 0.005% with SEQ ID NO:1 0.03%, FIG. 4) is given as “greater with increasing latanoprost concentrations, in combination with SEQ ID NO:1”.
